Columns and labels:
Fusarium virguliforme = test: Mycelial colony growth of Fusarium virguliforme on flutriafol-amended PDA; format: cell-based
Description: Inhibition of Fusarium virguliforme was tested in the following example:
The flutriafol composition used in the example was TOPGUARD (125 g/L flutriafol SC). Each pathogen was grown out on fresh potato dextrose agar (commercial PDA), assessed and used to seed 2× autoclaved rice for inoculums development. At 7-10 days, two infested rice grains of each pathogen (2 per pathogen type) was placed at equal distances on flutriafol-amended PDA and incubated at 27-29° C. Mycelial colony diameter from each rice grain was measured at 1, 3, 5 and 7 days from grain placement. The included tables and data sets illustrate the differences in mycelia growth in response to various concentrations of the fungicide for one of the SDS pathogen types, Fusarium virguliforme.

[1] = system: Sudden Death Syndrome (SDS); test: Field trial: flutriafol applied pre-emergence to soybean for control of Sudden Death Syndrome; format: in vivo
Description: The determination of the efficacy and selectivity of flutriafol fungicide when applied pre-emergence to soybean for control of Sudden Death Syndrome (SDS) was tested in the following example:
The experiment was conducted in a Drummer silty clay loam soil with a pH of 6.8 and 3.0% organic matter. The experiment was set up as a randomized complete block with four replications. Plots were four 30 inch rows or a total of 10 ft. wide by 40 ft. long. Plot site was conventionally tilled and the trial was established on May 15, 2013, by planting NK S36-B6, a sudden death syndrome susceptible soybean variety. Seed was planted 1.5 inches deep and the seeding rate was 140,000 seeds/A. Topguard (a commercially available flutriafol SC formulation comprising 125 g/l) was applied at planting in-furrow in a 3-5 inch T-band perpendicular to the row with Teejet 4001E nozzles in a spray volume of 2 GPA. Topguard rates applied were 0.13, 0.195, 0.26 lb ai/acre (corresponding to 145.7, 218.6, 291.4 g ai/ha, respectively). These correspond to rates of 16, 24, or 32 fl oz of product/acre, respectively. One treatment of a 3-5 inch band of 32 fl oz/A Topguard was applied on May 21 as an ‘At Cracking’ application immediately prior to crop emergence. Trial was inoculated with SDS on sterile sorghum media that was applied in-furrow with a gandy box at planting at a rate of 25 ml per 20 ft of row. Data was collected from the two center rows from each plot.
Drip irrigation was installed so the trial had no moisture stress throughout the season. On August 12, 19 and 30, soybean sudden death syndrome (SDS) incidence (0-100%) and severity (0-9) were evaluated. An SDS disease index (SDS DX) was created by multiplying the % Incidence by the % Severity and dividing by 9. Soybeans were harvested on October 10 and yields were calculated and adjusted to bu/A at 13% moisture.

[2] = applied in a T-Band, August 12 and August 19

OC(Cn1cncn1)(c1ccc(F)cc1)c1ccccc1F (racemic) [flutriafol, (RS)-2,4′-difluoro-α-(1H-1,2,4-triazol-1-ylmethyl)benzhydryl alcohol]
Dia (mm) 1 day (Fusarium virguliforme; 0.01 ppm in PDA): 0 mm | Dia (mm) 3 days (Fusarium virguliforme; 0.01 ppm in PDA): 10.4 mm | Dia (mm) 5 days (Fusarium virguliforme; 0.01 ppm in PDA): 15.6 mm | Dia (mm) 7 days (Fusarium virguliforme; 0.01 ppm in PDA): 19.6 mm | Dia (mm) 1 day (Fusarium virguliforme; 0.1 ppm in PDA): 0 mm | Dia (mm) 3 days (Fusarium virguliforme; 0.1 ppm in PDA): 10.1 mm | Dia (mm) 5 days (Fusarium virguliforme; 0.1 ppm in PDA): 16.4 mm | Dia (mm) 7 days (Fusarium virguliforme; 0.1 ppm in PDA): 19.8 mm | Dia (mm) 1 day (Fusarium virguliforme; 1 ppm in PDA): 0 mm | Dia (mm) 3 days (Fusarium virguliforme; 1 ppm in PDA): 9.6 mm | Dia (mm) 5 days (Fusarium virguliforme; 1 ppm in PDA): 15.3 mm | Dia (mm) 7 days (Fusarium virguliforme; 1 ppm in PDA): 20 mm | Dia (mm) 1 day (Fusarium virguliforme; 10 ppm in PDA): 0 mm | Dia (mm) 3 days (Fusarium virguliforme; 10 ppm in PDA): 7.5 mm | Dia (mm) 5 days (Fusarium virguliforme; 10 ppm in PDA): 13.9 mm | Dia (mm) 7 days (Fusarium virguliforme; 10 ppm in PDA): 18.1 mm | Dia (mm) 1 day (Fusarium virguliforme; 100 ppm in PDA): 0 mm | Dia (mm) 3 days (Fusarium virguliforme; 100 ppm in PDA): 0 mm | Dia (mm) 5 days (Fusarium virguliforme; 100 ppm in PDA): 0 mm | Dia (mm) 7 days (Fusarium virguliforme; 100 ppm in PDA): 3 mm | Dia (mm) 1 day (Fusarium virguliforme; 250 ppm in PDA, 27-29° C.): 0 mm | Dia (mm) 3 days (Fusarium virguliforme; 250 ppm in PDA): 0 mm | Dia (mm) 5 days (Fusarium virguliforme; 250 ppm in PDA): 0 mm | Dia (mm) 7 days (Fusarium virguliforme; 250 ppm in PDA): 0 mm | soybean yield ([1]; T-band at 16, 24 or 32 oz/A, compared to the 'At Cracking' application and the untreated check): trend to higher soybean yield | Disease Index scores [1, 2]: numerically lower | SDS Incidence [1, 2]: numerically lower
